Measurements reported in patent publication US11612606B2, “8-aminoisoquinoline compounds and uses thereof” (priority 2018, dated 2023).
Counter-ions that a name gives are not always drawn. Like-named read-outs stand apart in the source and are kept apart here.

Biological target: HPK full length, T165E S171E (Homo sapiens (Human), UniProt Q92918, S171E/T165E)
Assay: HPK1-FL HTRF enzymatic assay ("HTRF")
Type: biochemical
Conditions: ATP 1 mM
Summary of the method: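 Full-length HPK1 (T165E/S171E) was preincubated 30 min with compound, then reacted 60 min with biotin-SLP-76 and 1 mM ATP. Phospho-SLP-76 was detected by HTRF (Eu-anti-pSLP76 antibody, SA-XL665) after a further 60 min.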

HPK full length, T165E S171E, sequence (Q92918 whole entry T165E/S171E, looked up): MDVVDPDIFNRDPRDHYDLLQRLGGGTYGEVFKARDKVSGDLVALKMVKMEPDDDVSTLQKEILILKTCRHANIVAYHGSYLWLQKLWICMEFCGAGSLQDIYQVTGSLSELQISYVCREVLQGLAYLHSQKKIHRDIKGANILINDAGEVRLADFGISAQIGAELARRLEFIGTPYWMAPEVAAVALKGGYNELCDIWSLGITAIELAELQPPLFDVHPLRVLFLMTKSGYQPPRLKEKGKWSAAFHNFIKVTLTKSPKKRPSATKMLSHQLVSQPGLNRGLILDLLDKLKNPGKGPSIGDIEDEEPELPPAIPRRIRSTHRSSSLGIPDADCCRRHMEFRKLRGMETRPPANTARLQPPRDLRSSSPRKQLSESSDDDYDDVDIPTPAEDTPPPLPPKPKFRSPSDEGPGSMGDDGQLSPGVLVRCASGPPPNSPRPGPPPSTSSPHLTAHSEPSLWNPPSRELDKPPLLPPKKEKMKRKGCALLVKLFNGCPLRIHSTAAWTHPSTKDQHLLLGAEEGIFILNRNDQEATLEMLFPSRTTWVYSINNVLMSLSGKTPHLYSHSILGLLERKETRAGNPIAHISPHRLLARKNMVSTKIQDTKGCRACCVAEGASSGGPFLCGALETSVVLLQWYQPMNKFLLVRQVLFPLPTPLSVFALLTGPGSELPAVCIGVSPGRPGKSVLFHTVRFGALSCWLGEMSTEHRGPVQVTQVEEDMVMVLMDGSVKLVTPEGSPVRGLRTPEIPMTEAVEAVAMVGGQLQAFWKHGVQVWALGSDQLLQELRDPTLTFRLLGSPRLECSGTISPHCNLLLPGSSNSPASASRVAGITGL

## Cc1c(-c2cc3cc(NC(=O)OC4CN(CC(F)F)C4)ncc3c(N)c2F)cnc2c1NCCO2 [Compound 434, 1-(2,2-Difluoroethyl)azetidin-3-yl (8-amino-7-fluoro-6-(8-methyl-2,3-dihydro-1H-pyrido[2,3-b][1,4]oxazin-7-yl)isoquinolin-3-yl)carbamate]
read-out: HPK1 Ki
  Ki: < 13 pM

## Cc1c(-c2cc3cc(NC(=O)OC4CCN(C)CC4)ncc3c(N)c2F)cnc2c1NCCO2 [Compound 407, 1-Methylpiperidin-4-yl (8-amino-7-fluoro-6-(8-methyl-2,3-dihydro-1H-pyrido[2,3-b][1,4]oxazin-7-yl)isoquinolin-3-yl)carbamate]
read-out: HPK1 Ki
  Ki: 30 pM

## Cc1c(-c2cc3cc(NC(=O)O[C@H]4C[C@H](N(C)C)C4)ncc3c(N)c2F)cnc2c1NCCO2 [Compound 447a, (1r,3r)-3-(Dimethylamino)cyclobutyl (8-amino-7-fluoro-6-(8-methyl-2,3-dihydro-1H-pyrido[2,3-b][1,4]oxazin-7-yl)isoquinolin-3-yl)carbamate hydrochloride]
read-out: HPK1 Ki
  Ki: < 13 pM

## CN[C@@H]1CCCC[C@H]1OC(=O)Nc1cc2cc(-c3cnc4c(c3C)NCCO4)c(F)c(N)c2cn1 (single isomer, unassigned) [Compound 415b]
read-out: HPK1 Ki
  Ki: 16000 pM

## CO[C@]1(C)C[C@H](OC(=O)Nc2cc3cc(-c4cnc5c(c4C)NCCO5)c(F)c(N)c3cn2)C1 [Compound 528a, (1s,3s)-3-Methoxy-3-methyl cyclobutyl (8-amino-7-fluoro-6-(8-methyl-2,3-dihydro-1H-pyrido[2,3-b][1,4]oxazin-7-yl)isoquinolin-3-yl)carbamate]
read-out: HPK1 Ki
  Ki: < 13 pM

## Cc1c(-c2cc3cc(NC(=O)O[C@H](C)CN(C)C)ncc3c(N)c2F)cnc2c1NCCO2 (single isomer, unassigned) [Compound 523a]
read-out: HPK1 Ki
  Ki: 850 pM

## Cc1c(-c2cc3cc(NC(=O)O[C@H]4COC[C@@H]4C)ncc3c(N)c2F)cnc2c1NC[C@H](F)O2 (single isomer, unassigned) [Compound 567a]
read-out: HPK1 Ki
  Ki: 330 pM

## Cc1c(-c2cc3cc(NC(=O)O[C@H]4Cc5nccn5C4)ncc3c(N)c2F)cnc2c1NCCO2 (single isomer, unassigned) [Compound 504b]
read-out: HPK1 Ki
  Ki: 760 pM

## Cc1c(-c2cc3cc(NC(=O)OC4CCOC4)ncc3c(N)c2F)cnc2c1NCCO2 (racemic) [Compound 403, (±)-Tetrahydrofuran-3-yl (8-amino-7-fluoro-6-(8-methyl-2,3-dihydro-1H-pyrido[2,3-b][1,4]oxazin-7-yl)isoquinolin-3-yl)carbamate]
read-out: HPK1 Ki
  Ki: 23 pM

## Cc1c(-c2cc3cc(NC(=O)O[C@H]4CCN(CC(F)F)C[C@H]4F)ncc3c(N)c2F)cnc2c1NCCO2 (single isomer, unassigned) [Compound 566b]
read-out: HPK1 Ki
  Ki: 149 pM

## Cc1c(-c2cc3cc(NC(=O)O[C@H]4C[C@@H](O)C4)ncc3c(N)c2F)cnc2c1NC[C@@H]1C[C@H]21 (single isomer, unassigned) [Compound 584a]
read-out: HPK1 Ki
  Ki: 140 pM

## Cc1c(-c2cc3cc(NC(=O)OC4C5COCC4CN(C)C5)ncc3c(N)c2F)cnc2c1NCCO2 (single isomer, unassigned) [Compound 439b]
read-out: HPK1 Ki
  Ki: 480 pM

## Cc1c(-c2cc3cc(NC(=O)O[C@@H]4CCOC4)ncc3c(N)c2F)cnc2c1NC[C@@H](F)O2 (single isomer, unassigned) [Compound 518a]
read-out: HPK1 Ki
  Ki: 69 pM

## Cc1c(-c2cc3cc(NC(=O)O[C@@H]4C[C@@](C)(O)[C@H]4C)ncc3c(N)c2F)cnc2c1NCCO2 [Compound 526d, (1R,2S,3R)-3-Hydroxy-2,3-dimethylcyclobutyl (8-amino-7-fluoro-6-(8-methyl-2,3-dihydro-1H-pyrido[2,3-b][1,4]oxazin-7-yl)isoquinolin-3-yl)carbamate]
read-out: HPK1 Ki
  Ki: 18 pM

## CC(=O)O[C@]1(C)C[C@H](OC(=O)Nc2cc3cc(-c4cnc5c(c4C)NCCO5)c(F)c(N)c3cn2)C1 [Compound 529b, (1s,3s)-3-(((8-Amino-7-fluoro-6-(8-methyl-2,3-dihydro-1H-pyrido[2,3-b][1,4]oxazin-7-yl)isoquinolin-3-yl)carbamoyl)oxy)-1-methylcyclobutyl acetate]
read-out: HPK1 Ki
  Ki: 19 pM

## Cc1c(-c2cc3cc(NC(=O)OC4CC5(CCN(C)C5)C4)ncc3c(N)c2F)cnc2c1NCCO2 (centres unmarked) [Compound 428, 6-Methyl-6-azaspiro[3.4]octan-2-yl (8-amino-7-fluoro-6-(8-methyl-2,3-dihydro-1H-pyrido[2,3-b][1,4]oxazin-7-yl)isoquinolin-3-yl)carbamate]
read-out: HPK1 Ki
  Ki: < 13 pM

## CC(=O)N1CC(OC(=O)Nc2cc3cc(-c4cnc5c(c4C)NCCO5)c(F)c(N)c3cn2)C1 [Compound 426, (1-Acetylazetidin-3-yl) N-[8-amino-7-fluoro-6-(8-methyl-2,3-dihydro-1H-pyrido[2,3-b][1,4]oxazin-7-yl)-3-isoquinolyl]carbamate]
read-out: HPK1 Ki
  Ki: < 13 pM

## Cc1c(-c2cc3cc(NC(=O)OC4CN(C(C)C)C4)ncc3c(N)c2F)cnc2c1NCCO2 [Compound 419, (1-Isopropylazetidin-3-yl) N-[8-amino-7-fluoro-6-(8-methyl-2,3-dihydro-1H-pyrido[2,3-b][1,4]oxazin-7-yl)-3-isoquinolyl]carbamate]
read-out: HPK1 Ki
  Ki: 61 pM

## Cc1c(-c2cc3cc(NC(=O)N[C@H]4C[C@H](F)C4)ncc3c(N)c2F)cnc2c1NCCO2 [Compound 748b, 1-(8-Amino-7-fluoro-6-(8-methyl-2,3-dihydro-1H-pyrido[2,3-b][1,4]oxazin-7-yl)isoquinolin-3-yl)-3-((1r,3r)-3-fluorocyclobutyl)urea]
read-out: HPK1 Ki
  Ki: 18 pM

## Cc1c(-c2cc3cc(NC(=O)O[C@@H]4CN(C)C[C@@H]4F)ncc3c(N)c2F)cnc2c1NCCO2 (single isomer, unassigned) [Compound 452d]
read-out: HPK1 Ki
  Ki: < 13 pM

## Cc1c(-c2cc3cc(NC(=O)O[C@@H]4COC[C@H]4C)ncc3c(N)c2F)cnc2c1NC(=O)CO2 (single isomer, unassigned) [Compound 558b, hydrochloride]
read-out: HPK1 Ki
  Ki: 3750 pM

## Cc1c(-c2cc3cc(NC(=O)O[C@H]4CCO[C@@H]4C)ncc3c(N)c2F)cnc2c1NCCO2 (single isomer, unassigned) [Compound 510b]
read-out: HPK1 Ki
  Ki: 308 pM

## Cc1c(-c2cc3cc(NC(=O)N[C@H]4CCOC4)ncc3c(N)c2F)cnc2c1NCCO2 (single isomer, unassigned) [Compound 722b]
read-out: HPK1 Ki
  Ki: < 13 pM

## Cc1c(-c2cc3cc(NC(=O)O[C@@H]4CCN([C@H]5CCOC5)C[C@@H]4F)ncc3c(N)c2F)cnc2c1NCCO2 [Compound 569a, (3S,4R)-3-Fluoro-1-((S)-tetrahydrofuran-3-yl)piperidin-4-yl (8-amino-7-fluoro-6-(8-methyl-2,3-dihydro-1H-pyrido[2,3-b][1,4]oxazin-7-yl)isoquinolin-3-yl)carbamate]
read-out: HPK1 Ki
  Ki: 277 pM

## Cc1c(-c2cc(N)c3cnc(NC(=O)O[C@H]4C[C@@H](C#N)C4)cc3c2)cnc2c1NCCO2 [Compound 557a, (1s,3s)-3-Cyanocyclobutyl (8-amino-6-(8-methyl-2,3-dihydro-1H-pyrido[2,3-b][1,4]oxazin-7-yl)isoquinolin-3-yl)carbamate hydrochloride]
read-out: HPK1 Ki
  Ki: < 13 pM

## Cc1c(-c2cc3cc(NC(=O)OC4CN(C(=O)[C@@H]5C[C@H]5F)C4)ncc3c(N)c2F)cnc2c1NCCO2 (single isomer, unassigned) [Compound 545b]
read-out: HPK1 Ki
  Ki: 18 pM

## Cc1c(-c2cc3cc(NC(=O)O[C@H]4CC[C@@H](O)C4)ncc3c(N)c2F)cnc2c1NCCO2 (single isomer, unassigned) [Compound 582a]
read-out: HPK1 Ki
  Ki: 20 pM

## CO[C@@H]1CC[C@H](NC(=O)Nc2cc3cc(-c4cnc5c(c4C)NCCO5)c(F)c(N)c3cn2)C1 [Compound 730d, 1-(8-amino-7-fluoro-6-(8-methyl-2,3-dihydro-1H-pyrido[2,3-b][1,4]oxazin-7-yl)isoquinolin-3-yl)-3-((1S,3R)-3-methoxycyclopentyl)urea]
HPK1 Ki
  Ki: < 13 pM

## Cc1c(-c2cc3cc(NC(=O)O[C@H]4[C@@H]5CN(S(C)(=O)=O)C[C@@H]54)ncc3c(N)c2F)cnc2c1NCCO2 [Compound 522a, (1R,5S,6s)-3-(Methylsulfonyl)-3-azabicyclo[3.1.0]hexan-6-yl (8-amino-7-fluoro-6-(8-methyl-2,3-dihydro-1H-pyrido[2,3-b][1,4]oxazin-7-yl)isoquinolin-3-yl)carbamate]
read-out: HPK1 Ki
  Ki: < 13 pM

## Cc1c(-c2cc3cc(NC(=O)O[C@@H]4COCCN(C)C4)ncc3c(N)c2F)cnc2c1NCCO2 (single isomer, unassigned) [Compound 440b]
read-out: HPK1 Ki
  Ki: 277 pM

## Cc1c(-c2cc3cc(NC(=O)O[C@H]4[C@@H]5CN(C6COC6)C[C@@H]54)ncc3c(N)c2F)cnc2c1NCCO2 [Compound 502a, (1R,5S,6s)-3-(Oxetan-3-yl)-3-azabicyclo[3.1.0]hexan-6-yl (8-amino-7-fluoro-6-(8-methyl-2,3-dihydro-1H-pyrido[2,3-b][1,4]oxazin-7-yl)isoquinolin-3-yl)carbamate]
read-out: HPK1 Ki
  Ki: < 13 pM

## Cc1c(-c2cc3cc(NC(=O)OC4CC5(C4)CN(C)C5)ncc3c(N)c2F)cnc2c1NCCO2 [Compound 417, 2-Methyl-2-azaspiro[3.3]heptan-6-yl (8-amino-7-fluoro-6-(8-methyl-2,3-dihydro-1H-pyrido[2,3-b][1,4]oxazin-7-yl)isoquinolin-3-yl)carbamate]
read-out: HPK1 Ki
  Ki: < 13 pM

## CO[C@H]1CC[C@H](NC(=O)Nc2cc3cc(-c4cnc5c(c4C)NCCO5)c(F)c(N)c3cn2)C1 [Compound 730b, 1-(8-amino-7-fluoro-6-(8-methyl-2,3-dihydro-1H-pyrido[2,3-b][1,4]oxazin-7-yl)isoquinolin-3-yl)-3-((1S,3S)-3-methoxycyclopentyl)urea]
HPK1 Ki
  Ki: < 13 pM

## Cc1c(-c2cc3cc(NC(=O)O[C@H]4CN(C)C[C@@H]4F)ncc3c(N)c2F)cnc2c1NCCO2 [Compound 452a, (3S,4S)-4-Fluoro-1-methylpyrrolidin-3-yl (8-amino-7-fluoro-6-(8-methyl-2,3-dihydro-1H-pyrido[2,3-b][1,4]oxazin-7-yl)isoquinolin-3-yl)carbamate]
read-out: HPK1 Ki
  Ki: 30 pM

## Cc1c(-c2cc3cc(NC(=O)O[C@H]4C[C@H](C(C)(C)C#N)C4)ncc3c(N)c2F)cnc2c1NCCO2 [Compound 549b, (1r,3r)-3-(2-Cyanopropan-2-yl)cyclobutyl (8-amino-7-fluoro-6-(8-methyl-2,3-dihydro-1H-pyrido[2,3-b][1,4]oxazin-7-yl)isoquinolin-3-yl)carbamate]
read-out: HPK1 Ki
  Ki: < 13 pM
